From patent EP2386565A2, “Compounds and methods to inhibit or augment an inflammatory response” (Cambridge Enterprise Ltd., priority 1999, dated 2000)
Positions of bridges follow the written chain, without caps; N, C: chain ends. Non-standard residues stand in square brackets, D forms with d. Residues, ends and D or L forms follow the SMILES beside them. No end group written: not given here.

Experiments:
[1] = system: MCP-1 induced THP-1 migration; test: THP-1 trans-well migration assay, MCP-1 as chemoattractant; type: cell-based, human; details: for ED50 v MCP-1: MCP-1 induced chemotaxis of THP-1 cells; for % inhibition at 100 µM versus MCP-1: THP-1 migration, agent at 100 µM with the cells, n.s. or dash = no statistically significant inhibition; for ED50 (µM) versus MCP-1: inhibition of THP-1 migration, n.s./ns = not statistically significant
Protocol: (§1) To determine whether an agent inhibits a chemokine-induced activity, such as macrophage recruitment, varying amounts of the agent are mixed with cells in the presence of a known chemoattractant. For example, a range of known concentrations of an agent, e.g., a chemokine peptide, is incubated with a defined number (e.g., 10^4 - […]) of human THP-1 monocyte cells in individual wells of the top compartment of a trans-well plate. Chemokine (such as MCP-1, MIP1α, IL8 or SDF-1α), at a concentration known to cause significant migration of THP-1 cells in the trans-well migration assay, is placed in the lower compartment (Figure 1). Cells are then incubated at 37°C for a period sufficient to allow migration, e.g., 4 hours. After incubation, the cells are gently removed from the top of the filter with a pipette, 20 µl of 20 mM EDTA in simple PBS is added into each top well, and incubated for 20 minutes at 4°C. The filter is carefully flushed with media using a gentle flow, and removed. A standard curve consisting of a two-fold dilution series of THP-1 cells (in 29 µl) is prepared to accurately quantify the number of cells that have migrated. Migrated cells are stained with 3 µl of MTT stock dye solution which is added directly into each well (5 mg/ml in RPMI-1640 without phenol red, Sigma Chemical Co.) and incubated at 37°C for 4 hours. The media is carefully aspirated from each well, and the converted dye is solubilized by 20 µl of DMSO. Absorbance of converted dye is measured at a wavelength of 595 nm using an ELISA plate reader. The number of migrated cells in each well is then determined by interpolation of the standard curve (see also Imai et al.,J. Biol. Chem., 272, 15036 (1997)).
Any method suitable for counting cells can be used, for example, counting with a hemocytometer, incubation of the cells with MTT (see above), or FACS analysis. A negative control assay is also performed, using TGF-β or another non-chemokine chemoattractant (e.g., IL1β or TNFα). To assess whether the agent is cytotoxic, the same concentrations of agent are incubated with THP-1 cells. Agents which 1) are not cytotoxic at levels which inhibit migration, 2) are ineffective at inhibiting the negative control-induced migration, and 3) reduce or inhibit chemokine-induced THP-1 migration, are agents which fall within the scope of the invention.
For this assay, THP-1 cells were maintained at a density of 4 × 10^5 cells per ml in RPMI-1640 supplemented with 10% fetal calf serum + 20 µM 2-mercaptoethanol. Chemotaxis was induced in a 96-well disposable chemotaxis chamber fitted with a 5 µM polycarbonate filter (PVP free, ChemoTX, Neuroprobe Inc., Cabin John). […] The framed filter was aligned with the holes in the corner of the filter frame and placed over the wells.
(§2) Five × 10^4 THP-1 cells in 25 µl of RPMI-1640 were added to the upper compartment. Peptides were dissolved in Milli Q water and then serially diluted in culture medium. In most cases, the serially diluted peptides were added to the upper compartment of the chemotaxis chamber. The chamber was incubated at 37°C in a humidified atmosphere of 5% CO2 for 4 hours.
After incubation, the cells were gently removed from the top of the filter with a pipette, 20 µl of 20 mM EDTA in PBS was added into each top well, and the mixture was incubated for 20 minutes at 4°C. The filter was then carefully flushed with media using a gentle flow, and removed. A standard curve was prepared to accurately quantify the number of THP-1 cells that had migrated. The curve was based on a two-fold dilution series of THP-1 cells (top standard 100,000 cells in 29 µl). Cells which had migrated, and in separate wells, the cells in the standards, were stained with 3 µl of MTT stock solution which was added directly into each well (5 mg/ml in RPMI 1640 without phenol red, Sigma Chemical Co.) and incubated at 37°C for 4 hours. The media was carefully aspirated from each well, and the converted dye was solubilized by 20 µl of DMSO. […]

[2] = molecular target: T1, Duffy Antigen Receptor for Chemokines (DARC) (Homo sapiens, UniProt Q16570); test: DARC binding: competition with 125I-MCP-1 on red blood cells; details: for DARC binding (µM): ns = not significantly different from control, >100 = not determined
T1 sequence (Q16570 1-336): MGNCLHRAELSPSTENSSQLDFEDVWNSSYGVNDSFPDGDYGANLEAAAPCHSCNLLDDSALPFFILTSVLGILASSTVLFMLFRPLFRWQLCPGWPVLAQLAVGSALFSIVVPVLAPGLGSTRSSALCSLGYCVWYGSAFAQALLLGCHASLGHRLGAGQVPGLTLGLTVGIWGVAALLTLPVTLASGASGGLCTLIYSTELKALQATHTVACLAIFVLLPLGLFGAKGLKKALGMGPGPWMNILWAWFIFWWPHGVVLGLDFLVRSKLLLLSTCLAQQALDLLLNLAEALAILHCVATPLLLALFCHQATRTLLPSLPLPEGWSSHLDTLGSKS

[3] = system: SDF-1α induced THP-1 migration; test: THP-1 trans-well migration assay, SDF-1α as chemoattractant; type: cell-based, human; details: for ED50 (µM) versus SDF-1α: inhibition of THP-1 migration, n.s./ns = not statistically significant
Protocol: as §1
(§3) For this assay, THP-1 cells were maintained at a density of 4 × 10^5 cells per ml in RPMI-1640 supplemented with 10% fetal calf serum + 20 µM 2-mercaptoethanol. Chemotaxis was induced in a 96-well disposable chemotaxis chamber fitted with a 5 µM polycarbonate filter (PVP free, ChemoTX, Neuroprobe Inc., Cabin John). Twenty-nine µl of chemoattractant (recombinant human chemokine; 50 ng/ml, i.e., 5.9 nM) or control (100 ng/ml TGFβ) was added to the lower compartment of each well. The framed filter was aligned with the holes in the corner of the filter frame and placed over the wells.
as §2
(§4) After incubation, the cells were gently removed from the top of the filter with a pipette, 20 µl of 20 mM EDTA in PBS was added into each top well, and the mixture was incubated for 20 minutes at 4°C. The filter was then carefully flushed with media using a gentle flow, and removed. A standard curve was prepared to accurately quantify the number of THP-1 cells that had migrated. The curve was based on a two-fold dilution series of THP-1 cells (top standard 100,000 cells in 29 µl). Cells which had migrated, and in separate wells, the cells in the standards, were stained with 3 µl of MTT stock solution which was added directly into each well (5 mg/ml in RPMI 1640 without phenol red, Sigma Chemical Co.) and incubated at 37°C for 4 hours. The media was carefully aspirated from each well, and the converted dye was solubilized by 20 µl of DMSO. Absorbance of converted dye was measured at a wavelength of 595 nm using an ELISA plate reader. The number of cells that had migrated in each well was determined by interpolation of the standard curve.
(§5) To investigate the receptor specificity of peptide 3 inhibition, the ED50 was determined for peptide 3(1-12)[MCP-1] (SEQ ID NO:1) inhibition of THP-1 migration induced by chemokines which signal through different receptors than MCP-1 receptors. […]

[4] = system: MIP1α induced THP-1 migration; test: THP-1 trans-well migration assay, MIP1α as chemoattractant; type: cell-based, human; details: for ED50 (µM) versus MIP1α: inhibition of THP-1 migration, n.s./ns = not statistically significant
Protocol: as §1, §3, §2, §4, §5

[5] = THP-1 migration, agent at 100 µM, n.s. or dash = no statistically significant inhibition

Compound	potency as inhibitor of THP-1 migration induced by MCP-1 relative to the D-ala derivative [1] [fold]	ED50 v MCP-1 ([1]; listed as CRD-Cys13Leu4Ile11peptide 3(3-12)[MCP-1]) [µM]	ED50 v MCP-1 ([1]; listed as NR58-3.14.3) [µM]	Duffy selectivity / DARC specificity ratio ([2]; estimated ka for binding to red blood cells divided by average inhibitory ED50)	% inhibition at 100 µM versus MCP-1 [1]	% inhibition at 100 µM versus MCP-1 ([1]; listed as Peptide 1[MCP-1]) [%]	% inhibition at 100 µM versus MCP-1 ([1]; listed as peptide 1[MCP-1]) [%]	ED50 (µM) versus MCP-1 [1]	ED50 (µM) versus MCP-1 ([1]; listed as Peptide 1[MCP-1]) [µM]	% inhibition of the MCP-1 induced migration at 100 µM ([1]; peptide introduced with the chemokine in the lower compartment) [%]	% inhibition at 100 µM versus SDF-1α [3, 5]	ED50 (µM) versus SDF-1α [3]	% inhibition at 100 µM versus MIP1α [4, 5]	ED50 (µM) versus MIP1α [4]	DARC binding (µM) [2]
CC[C@@H](C)[C@H]1NC(=O)[C@@H](CCC(N)=O)NC(=O)[C@H](N)CSSC[C@H](C(N)=O)NC(=O)[C@@H](CC(C)C)NC(=O)[C@@H](CC(=O)O)NC(=O)[C@H]2CCCN2C(=O)[C@@H](CCCCN)NC(=O)[C@@H](CCC(N)=O)NC(=O)[C@@H](CCCCN)NC(=O)[C@@H](Cc2c[nH]c3ccccc23)NC1=O (H-[dC][dQ][dI][dW][dK][dQ][dK][dP][dD][dL][dC]-NH2; disulfide 1-11)	1000	0.001 to 0.01	0.01	> 100											
CC[C@H](C)[C@H](NC(=O)[C@H](C)NC(=O)[C@H](CC(=O)O)NC(=O)[C@@H]1CCCN1C(=O)[C@H](CCC(N)=O)NC(=O)[C@H](C)N)C(=O)N[C@@H](CC(N)=O)C(=O)N[C@@H](C)C(=O)N1CCC[C@H]1C(=O)N[C@H](C(=O)N[C@H](C(=O)N[C@@H](CS)C(=O)N[C@@H](CS)C(=O)O)[C@@H](C)O)C(C)C [Peptide 1] (H-AQPDAINAPVTCC-OH; N-terminus and C-terminus assumed)					n.s.^b	10	10	n.s.^b	> 100	48	n.s.	n.s.	n.s.^b	n.s.^b	
=cvaekpsksstirrysc= ([dC][dV][dA][dE][dK][dP][dS][dK][dS][dS][dT][dI][dR][dR][dY][dS][dC]; bridge 1-17 (inferred); not fully specified; printed as =cvaekpsksstirrysc=)								ns				ns		ns	ns
CSYRRITSSKSPKEAVC								ns				ns		ns	ns
